Measured values published in PMC11575720 (RSC Advances, 2024).

How the values were obtained:
L. major DHFR = L. major DHFR (Leishmania major, UniProt P07382); assay: L. major DHFR; type: biochemical
L. major PTR1 = target: T1, L. major PTR1 (Leishmania major, UniProt Q01782); assay: L. major PTR1 enzyme inhibition assay; type: biochemical
T1 sequence (Q01782 1-288): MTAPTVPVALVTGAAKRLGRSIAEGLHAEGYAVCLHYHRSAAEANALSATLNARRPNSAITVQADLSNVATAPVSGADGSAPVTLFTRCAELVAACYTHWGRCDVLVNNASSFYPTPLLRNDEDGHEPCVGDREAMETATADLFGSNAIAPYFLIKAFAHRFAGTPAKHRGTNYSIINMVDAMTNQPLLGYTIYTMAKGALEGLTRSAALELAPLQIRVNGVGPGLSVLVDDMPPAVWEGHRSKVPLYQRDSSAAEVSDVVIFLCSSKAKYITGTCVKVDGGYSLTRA

Chain of L. major DHFR (P07382 whole entry): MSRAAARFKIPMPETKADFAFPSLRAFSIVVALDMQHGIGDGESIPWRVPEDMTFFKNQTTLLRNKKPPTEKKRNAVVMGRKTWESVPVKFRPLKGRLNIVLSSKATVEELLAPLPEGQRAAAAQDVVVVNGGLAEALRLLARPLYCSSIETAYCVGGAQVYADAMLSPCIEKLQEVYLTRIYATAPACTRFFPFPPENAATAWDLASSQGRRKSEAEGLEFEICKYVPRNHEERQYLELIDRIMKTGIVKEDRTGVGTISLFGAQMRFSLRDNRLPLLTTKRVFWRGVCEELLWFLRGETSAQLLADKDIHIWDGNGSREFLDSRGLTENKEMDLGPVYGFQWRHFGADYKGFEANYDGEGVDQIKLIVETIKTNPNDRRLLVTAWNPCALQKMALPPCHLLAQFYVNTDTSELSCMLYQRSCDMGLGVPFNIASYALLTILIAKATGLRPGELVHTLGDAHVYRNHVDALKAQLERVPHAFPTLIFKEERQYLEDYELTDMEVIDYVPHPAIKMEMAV

| IC50 (L. major DHFR) [µM] | IC50 (L. major PTR1) [µM] | Compound |
| --- | --- | --- |
| 8.09 ± 0.01 | 0.58 ± 0.05 | O=C(NC(=S)Nc1cccc(O)c1)c1cccs1 [Compound 4g, N-((3-Hydroxyphenyl)carbamothioyl)thiophene-2-carboxamide] |
| 2.63 ± 0.01 | 15.86 ± 0.01 | Cc1nc(NC(=S)NCc2ccco2)nc(-c2ccccc2)c1C(=O)N1CCC(C(=O)O)CC1 [Compound 20a, 1-(2-(3-(Furan-2-ylmethyl)thioureido)-4-methyl-6-phenylpyrimidine-5-carbonyl)piperidine-4-carboxylic acid] |
| 1.14 ± 0.01 | 19.89 ± 0.01 | Cc1nc(NC(=S)NCc2cccs2)nc(-c2ccccc2)c1C(=O)N1CCC(C(=O)O)CC1 [Compound 20b, 1-(4-Methyl-6-phenyl-2-(3-(thiophen-2-ylmethyl)thioureido)pyrimidine-5-carbonyl)piperidine-4-carboxylic acid] |
